melting point	Structure (SMILES)
210 to 211 °C	CC(=O)Oc1cc2c(c(OC(C)=O)c1)C1CCC3(C)C(O)CCC3C1CC2 (stereo not given)
185 °C	O=C(NC(=O)c1ccccc1Cl)Nc1cc(C(F)(F)F)c(Cl)cc1Br
135 to 136 °C	COc1cc(CP(=O)(OC)OC)c2c(CP(=O)(OC)OC)cc(OC)cc2c1
165 to 166 °C	O=C(NC[C@@H](O)C(=O)O)OCC1c2ccccc2-c2ccccc21
94 to 96 °C	COC1C(O)CCC(O)(CSc2ccccc2)C1C1(C)OC1CC=C(C)C (stereo not given)
142 °C	Cc1c(C)c2c(c(C)c1O)CCC(C)(CC(=O)N(C)C)O2 (stereo not given)
138 °C	CC(=O)N1C(=O)C(C(=O)c2ccco2)c2ccccc21 (stereo not given)
152 to 155 °C	O=S(c1ncccn1)c1cccc2cccnc12 (stereo not given)
118 to 119 °C	c1ccc(Cc2cnc(-c3ccccc3)c(-c3ccccc3)n2)cc1
168 to 175 °C	COC(=O)CC[C@H](NC(=O)c1ccc(N(C)CCc2c(NC(C)=O)nc(NC(C)=O)[nH]c2=O)cc1)C(=O)OC
141 to 143 °C	CC1CN(c2ccc([N+](=O)[O-])nc2)C1
65 to 70 °C	O=C(O)c1ccc(NC(=O)C(CS)Cc2ccccc2)cc1Cl (stereo not given)
166 to 168 °C	COCCN1CCN(c2ccc(C(=O)NC3(C(=O)NCC#N)CCCCC3)cc2)CC1
> 300 °C	Nc1nc2ccccc2c(=O)[nH]1
166 to 168 °C	CCCCC(O)c1c(C(C)C)nc(C(C)C)c(CO)c1-c1ccc(F)cc1 (stereo not given)
128 to 129 °C	OCc1cn(Cc2ccc(OCc3ccccc3)cc2)nc1OCc1ccc(OCc2ccccc2)cc1
120 to 122 °C	COC(=O)Nc1cc(-c2nccs2)[nH]c1C(CC1CCOCC1)c1ccc(S(=O)(=O)C2CC2)cc1 (stereo not given)
60 to 61 °C	COc1ccc2cc(Cc3ccccc3)sc2c1
232 to 234 °C	CCc1ccc(S(=O)(=O)Nc2ccccc2/C=C/c2ccncc2)cc1
104 to 106 °C	O=C(COc1cccc2ccccc12)NC(Cc1ccccc1)C(=O)CSCc1ccco1 (stereo not given)
51 to 53 °C	O=C1NC(=O)C(Cc2ccc(CCNCC(O)COc3ccc(OCc4ccccc4)cc3)cc2)S1 (stereo not given)
145 to 147 °C	COC(=O)c1ccccc1C(=O)NN(C(=S)Nc1ccccc1)C(C)C
224 °C	CS(=O)(=O)Oc1cnc2ccccc2c1O
167 to 168 °C	Cc1nccn1-c1nc(Cl)c(-c2ccccc2)c2ccccc12

melting point	Structure (SMILES)
153 °C	Cc1ccc(S(=O)(=O)N2[C@H](CCCc3nnnn3C)CC[C@@H]2c2ccc(F)cc2)cc1 (racemic)
105 to 107 °C	O=S(=O)(Nc1cccc(CCOCc2ccc(-c3cccc(Cl)c3)cc2)c1)C(F)(F)F
103 to 106 °C	CCNC(=O)c1cnn(C)c1
222 to 223 °C	CSc1nnc(N2CCN(c3ccc(N4CC(CNC(C)=O)OC4=O)cc3F)CC2)s1 (stereo not given)
266 to 268 °C	Cc1cnc(N2C(=O)C(O)=C(C(=O)c3ccc(C(C)C)cc3)C2c2ccc(OC(F)(F)F)cc2)cn1 (stereo not given)
212 to 213 °C	Cc1cccc(C)c1-n1cnc(NCC(F)(F)F)nc1=O
87 to 89 °C	C=Cc1cc2cc(OC)ccc2n1C
196 to 198 °C	Cc1ccc(-c2cc(C=O)nn2-c2ccc(S(N)(=O)=O)cc2)cc1
134 to 136 °C	O=[N+]([O-])c1ccc2c(ccn2Cc2ccncc2)c1
86.5 to 95 °C	CN(C)Cc1ccc(COCC(N)=O)s1
153 to 155 °C	Cc1cc(Cl)nnc1-c1cccc(C#N)c1
94 to 97 °C	CN(CCC1CCN(c2noc3cc(F)ccc23)CC1)C(=O)c1noc2ccccc12
146 to 148 °C	COc1c(C)c2c(c(OS(C)(=O)=O)c1C/C=C(/Cl)CBr)C(=O)OC2
190 to 191 °C	CCOC(=O)c1cn(C(C)CCl)c2c(F)c(F)c(F)cc2c1=O (stereo not given)
160 to 161 °C	CCCCCS(=O)(=O)NC(=O)/C=C/c1cc(OC2CCOCC2)nn1Cc1ccc(C(F)(F)F)cc1Cl
211 to 212 °C	CC1(C)OC(=O)Nc2ccc(-c3cncc(Br)c3)cc21
184 to 185 °C	CC(C)(C)c1cc(-c2cn3ccsc3n2)cc(C(C)(C)C)c1O
53 to 54 °C	CNC(=O)[C@@H]1C[C@H](SCc2ccc(OC)cc2)CN1
127 to 128 °C	O=C(O)c1nc(-c2ccccc2Oc2ccc(F)cc2O)no1
178 to 179 °C	CC(=O)Nc1nc(CCc2ccc(CCN3CCN(C(=O)OC(C)(C)C)CC3)cc2)cs1
206 to 209 °C	O=c1c2c(Cc3cccc(C(F)(F)F)c3)n[nH]c2c2cccnc2n1-c1cccc(OC(F)(F)F)c1
184 to 185 °C	CC(C)(O)CCCc1onc(-c2ccccc2)c1-c1ccc(S(N)(=O)=O)cc1
129 to 130 °C	CON(C)C(=O)C(Cc1c[nH]c2ccccc12)NC(=O)OC(C)(C)C (stereo not given)
273 to 275 °C	CS(=O)(=O)c1ccccc1-c1ccc(C(=O)O)cc1

melting point	Structure (SMILES)
250 to 253 °C	NCc1cccc(C2CCN(c3cc4c(cc3F)c(=O)c(C(=O)O)cn4C3CC3)C2)c1 (stereo not given)
114 to 116 °C	CCOC(=O)c1cc2c(OCc3ccccc3)ccc3c(CC)c(-c4ccc(OCc5ccccc5)cc4)c1n23
190 to 191 °C	COc1cc(OCCN2CCCC2)c2c(=O)[nH]c(-c3cc(C)nc(C)c3)nc2c1
129 to 131 °C	O=C(CCCN1CCN(c2ncc3ccccc3n2)CC1)c1ccc(F)cc1
162 °C	CCCOc1ccn2nc(-c3ccccc3)c(-c3ccc(=O)n(C(C)C)n3)c2c1
84 to 86 °C	CCCCCCCCCCOC(=O)OC(C)OC1=C(C(=O)Nc2ccccn2)N(C)S(=O)(=O)c2ccccc21 (stereo not given)
217 to 219 °C	N#Cc1cccc(-c2ccc3c(c2)C2(CCCC2)C(=O)N3)c1
> 300 °C	Nc1c(Cl)cc2nc(O)c(O)nc2c1N
> 300 °C	CNC(=S)n1nc(NC(=O)c2ccccc2)nc1N
60 to 61 °C	CCOCOC(=O)Cc1c(C)n(C(=O)c2ccc(Cl)cc2)c2ccc(OC)cc12
129 to 130 °C	O=C(O)Cc1cc([N+](=O)[O-])ccc1Oc1ccc(F)cc1
75 to 76 °C	CCCc1c(OCCCCCOc2ccccc2CCCCC(=O)O)ccc2c1OCCC2=O
117 to 118 °C	CC(=O)NCCCc1ccc(CN2CCN(c3ccccc3)CC2)cc1
97 to 98 °C	O=C(C=Cc1ccc2c(c1)OCO2)c1cccc(OCCCCBr)c1
220 to 225 °C	Nc1cc2ccncc2c2sc3ccccc3c12
155 to 157 °C	O=C(O)c1ccccc1OCCCN1C(=O)c2ccccc2C1=O
204 to 206 °C	Cc1c(N2CC[C@H](N(C)C)C2)c(F)c(N)c2c(=O)c(C(=O)O)cn(C3CC3)c12
122 to 123 °C	CC(C)c1nc(C(C)C)c(/C=C/C=O)c(-c2ccc(F)cc2)c1C=CC=O
239 to 240 °C	N#Cc1ccsc1C1=CC(=O)Nc2cc(-c3ccc(F)cc3)ccc2N1
109 to 110 °C	COc1ccc(-c2cc(C(C)(C)C)c(O)c(C(C)(C)C)c2)cc1
113 to 115 °C	CCCCOC(=O)COc1cc(F)c([N+](=O)[O-])cc1[N+](=O)[O-]
145 °C	CCOC(=O)Oc1ccc(C(=O)Oc2ccc(C#N)cc2)cc1
155 °C	Nc1cnc2cc(F)c(F)cc2c1
176 to 178 °C	CC(C)C(=O)NC(c1ccc(Br)cc1)C(F)(F)F (stereo not given)

melting point	Structure (SMILES)
208 to 210 °C	Cc1oc(-c2ccccc2)nc1CCNCc1ccc(C[C@@H](C(=O)O)n2cccc2)cc1
137 to 138 °C	CCC(CC)(c1ccc(F)cc1)c1c[nH]c2c(NS(C)(=O)=O)cccc12
105 to 106 °C	COc1cc(-c2nc(C)cs2)cc(OC)c1OC
148 °C	CS(=O)(=O)c1ccc(-c2cc(CO)nn2C2CCCCC2)cc1
122 to 123 °C	CC(C)c1nc(CN(C)C(=O)NC(C(=O)NC(Cc2ccccc2)CC(O)C(Cc2ccccc2)NC(=O)OCc2cncs2)C(C)C)cs1 (stereo not given)
128 °C	CS(=O)(=O)c1ccc(-c2cc(C(=O)c3ccncc3)sc2N2CCOCC2)cc1
185 to 187 °C	CCOC(=O)c1sc(N2CCNC2=O)nc1C(F)(F)F
91 to 92 °C	COC(=O)N1C(=O)[C@H](O)[C@@H]1c1ccccc1
191 to 194 °C	Cc1cc2c(-c3cccc(/C=C/C(=O)O)c3)c(CC(=O)Nc3ccc(Cl)cc3C(F)(F)F)c(=O)oc2cc1Cl
200 to 202 °C	CCc1cccc2c3c([nH]c12)C(CC)(CC(=O)O)OCC3=O (stereo not given)
163 to 170 °C	CC(C)C1(C)N=C(c2ncc(C3OCC(C)(C)CO3)cc2C(=O)O)NC1=O (stereo not given)
174 to 176 °C	COC(=O)c1c(S(N)(=O)=O)c(C)nn1C
140 to 147 °C	COC1(c2ccc(N(C)C)cc2)OC(=O)c2cc(N(C)C)ccc21 (stereo not given)
212 to 214 °C	CCCCc1nc2ccc(O)cc2c(=O)n1Cc1ccc(-c2ccccc2-c2nnn[nH]2)cc1
231 to 233 °C	O=C(O)c1cccc(NCc2cccnc2)c1C(=O)O
216 to 218 °C	OCc1ccc2cnn(-c3ccnc(N[C@H]4CC[C@H](O)CC4)n3)c2c1
229 to 231 °C	CCSCc1ccc2[nH]c(NC(=O)OC)nc2c1
113 °C	O=C(N1CCOCC1)C(c1ccccc1)(c1ccccc1)c1ncc[nH]1
156 to 157 °C	O=C(NC(CO)c1ccc(-c2ccc(SC(F)F)cc2)cc1)c1c(F)cccc1F (stereo not given)
210 to 211 °C	Fc1cc(I)c2nc[nH]c2c1
156 to 158 °C	CCOC(=O)C1=C(C)Nc2ccnc(OC(C)C)c2C1c1cccc2c1OCO2 (stereo not given)
129 to 130 °C	COC(=O)C1N2C(=O)C(NC(=O)COc3ccccc3)C2SCC1(C)Nc1ccccc1 (stereo not given)
112 to 114 °C	CC(C)(C)OC(=O)N1Cc2c(Cl)sc(Cl)c2C1

Structure (SMILES)	melting point
COc1ccc(-n2c(SC)nc3cc(OC)cc(OC)c3c2=O)cc1	212 to 215 °C
Cc1cc(C2=NOC(c3cc(Cl)cc(Cl)c3)(C(F)(F)F)C2O)ccc1C(=O)O (stereo not given)	215 to 217 °C
CNC12CC(O)CCC1CCc1ccccc12 (stereo not given)	141 to 143 °C
Cc1c2c(c(C)c3c1NC(C)(C)C3)OC(C)(CN1CCC(N(C)c3nc4ccccc4s3)CC1)C2 (stereo not given)	147 to 150 °C
CC1CCCC2C1N2CC(O)Cn1ccnc1[N+](=O)[O-] (stereo not given)	124 °C
